Patent US20240415123A1, “METHODS AND COMPOSITIONS FOR ICAFOLIN HERBICIDE TOLERANCE” (Monsanto Technology LLC, priority 2023, published 2024)

Legend:
Format in all cases: in vivo
[1] = test system: Soy transgenic plants expressing CYP14; experiment: Field trial icafolin injury rating, CYP14 soybean; settings: for Percent Plant Injury (21 DAT): averaged across repetitions, field locations and events
Description: Soy transgenic plants expressing CYP14 or CYP15 were assayed in small scale field trails across nine sites in the United States for tolerance to icafolin spray applications. The plants were grown in field plots and sprayed during the early vegetative stages when plants were roughly at the V3 stage. The icafolin formulation was sprayed at either a 5 g ai/ha or 25 g ai/ha application rate with 2 treatment replications per location. The plants were rated for herbicide injury at 7, 14, 21, and 28 days after treatment (DAT). A total of 12 events for CYP14 and 11 events for CYP15 were tested. An event transformed with a non-herbicide tolerance construct served as a negative control to provide a comparison for injury.

[2] = test system: control (wild-type) soybean plants; experiment: Icafolin herbicide injury rating, greenhouse spray, control soybean; settings: for Percent Injury 13 DAT / Percent Injury 14 DAT / Percent Injury 15 DAT / Percent injury 21 DAT: Control
Description: Herbicide tolerance screens were performed by selecting R1 plants at roughly the V2-V3 developmental stage and applying icafolin herbicide with a track sprayer under standard greenhouse conditions. Two independent transgenic events per transgene were screened. The herbicide was formulated with 1% v/v methylated seed oil (MSO) and 2.5% v/v ammonium sulfate (AMS) and sprayed with a XR nozzle at 15 gallons per […] (GPA) to mimic field conditions. The icafolin used in this Example and in the experiments described in Examples 2-4 was a mixture of the methyl ester forms of the 2R, 4R and 2S, 4S isomers. The icafolin formulation was sprayed at two rates: 5 g active ingredient (ai)/hectare (ha) and 25 g ai/ha. The herbicide treated soybean plants were returned to the greenhouse following spray application and allowed to grow under standard conditions. Plants were rated for herbicide injury at approximately 14 and 21 days after treatment (DAT). Untreated transgenic plants and control (wild-type) plants were used for phenotypic comparison. The herbicide injury rating accounts for plant malformation, stunting, chlorosis, necrosis, and plant death relative to the untreated control plants. An injury rating of approximately 90% or above indicates nearly complete plant death. An injury rating of less than 30% indicates partial tolerance, and an injury rating of less than 20% indicates good tolerance. Injury ratings were collected and analyzed, and photographs of representative plants were taken.
(§1) Herbicide tolerance screening was performed by selecting R1 plants at roughly the V2-V3 developmental stage and applying the icafolin herbicide in a track sprayer under standard greenhouse conditions. Two independent transgenic events per transgene were selected for screening. The herbicide was formulated with 1% v/v methylated seed oil (MSO) and 2.5% v/v ammonium sulfate (AMS) and sprayed with a XR nozzle at 15 gallons per […] (GPA) to mimic field conditions. The icafolin formulation was sprayed at two rates: 5 g active ingredient (ai)/hectare (ha) and 25 g ai/ha. The treated soybean plants were returned to the greenhouse following spray application and allowed to grow under standard conditions. The plants were rated for herbicide injury at approximately 14 and 21 days after treatment (DAT). Untreated transgenic plants and control (wild-type) plants were used for phenotypic comparison. The herbicide injury rating accounts for plant malformation, stunting, chlorosis, necrosis, and plant death relative to the untreated control plants. An injury rating of approximately 90% or above indicates nearly complete plant death. An injury rating of less than 30% indicates partial tolerance and an injury rating of less than 20% indicates good tolerance. Injury ratings were collected and analyzed, and photographs of representative plants were taken.
as §1, with “13” for “14”, “An injury rating of approximately 90% or above indicates nearly complete plant death. An injury rating of less than 30% indicates partial tolerance and an injury rating of less than 20% indicates good tolerance. Injury ratings were collected and analyzed, and photographs of representative plants were taken.” left out

[3] = test system: transgenic soybean plants expressing CYP21; experiment: Icafolin herbicide injury rating, greenhouse spray, CYP21 soybean; settings: for Percent Injury 14 DAT / Percent injury 21 DAT: Table 8; for Percent Injury 14 DAT / injury: 14 DAT
Excerpt: The codon-optimized genes were placed into plant transformation cassettes with each CYP coding sequence operably linked to a constitutive expression element comprising the promoter, leader, and intron of Arabidopsis thaliana Ubiquitin 3 (SEQ ID NO:14) and a Medicago truncatula photosystem II terminator (SEQ ID NO:15). Two plant transformation vectors were created, each comprising one of the CYP gene cassettes and an aadA selectable marker expression cassette, conferring resistance to the antibiotics spectinomycin and streptomycin. Soybean cultivar AG3555 seed-derived embryo explants were transformed with the vectors described above by Agrobacterium-mediated transformation using known methods in the art, and positive-transformed plantlets were selected based on growth in the presence of spectinomycin. Plantlets comprising single copy events were grown in the greenhouse to produce R1 seeds. R1 plants were subsequently selected for the homozygous CYP positive plants, either by molecular analysis of young leaf tissue or by seed chipping prior to planting. These selected plants were then screened for tolerance to the icafolin herbicide.
as §1

[4] = 5 g ai/ha icafolin, Experiment 1
[5] = 25 g ai/ha icafolin, Experiment 1
[6] = CYP21 Event 344, 5 g ai/ha icafolin
[7] = CYP21 Event 344, 25 g ai/ha icafolin
[8] = CYP21 Event 502, 5 g ai/ha icafolin
[9] = CYP21 Event 502, 25 g ai/ha icafolin

C=C[C@]1(C(=O)N[C@H]2CO[C@@H](C(=O)OC)C2)CC(c2cc(F)cc(F)c2)=NO1 (relative stereo) [icafolin, methyl(2R*,4R*)-4-[[(5S)-3-(3,5-difluorophenyl)-5-vinyl-4H-isoxazole-5-carbonyl]amino]tetrahydrofuran-2-carboxylate]
Percent Plant Injury (21 DAT) ([1]; 5 g ai/ha icafolin): 11.4%
injury ratings ([1]; 5 g ai/ha, 21 DAT): below 15%
Tolerance to icafolin ([1]; 25 g ai/ha): Incomplete tolerance
Percent Plant Injury (21 DAT) ([1]; 25 g ai/ha icafolin): 41.1%
Percent Injury 13 DAT ([2]; 5 g ai/ha icafolin, 13 DAT, Table 10 (Example 4)): 42.5%
Percent Injury 14 DAT ([2]; 5 g ai/ha icafolin, 14 DAT, Experiment 2): 61%
Percent Injury 14 DAT ([2]; 5 g ai/ha icafolin, 14 DAT, Table 8 (Example 3)): 45.0%
Percent Injury 15 DAT [2, 4]: 42%
Percent injury 21 DAT [2, 4]: 50%
Percent injury 21 DAT ([2]; 5 g ai/ha icafolin, Experiment 2): 49%
Percent injury 21 DAT ([2]; 5 g ai/ha icafolin, Table 8 (Example 3)): 35.6%
Percent injury 21 DAT ([2]; 5 g ai/ha icafolin, Table 10 (Example 4)): 35.0%
Percent Injury 13 DAT ([2]; 25 g ai/ha icafolin, 13 DAT, Table 10 (Example 4)): 70.0%
Percent Injury 14 DAT ([2]; 25 g ai/ha icafolin, 14 DAT, Experiment 2): 90%
Percent Injury 14 DAT ([2]; 25 g ai/ha icafolin, 14 DAT, Table 8 (Example 3)): 78.1%
Percent Injury 15 DAT [2, 5]: 75%
Percent injury 21 DAT [2, 5]: 81%
Percent injury 21 DAT ([2]; 25 g ai/ha icafolin, Experiment 2): 91%
Percent injury 21 DAT ([2]; 25 g ai/ha icafolin, Table 8 (Example 3)): 83.1%
Percent injury 21 DAT ([2]; 25 g ai/ha icafolin, Table 10 (Example 4)): 79.4%
injury ([2]; control, 25 g ai/ha, 13 DAT, Example 4): about 70%
injury ([2]; control, 25 g ai/ha, 14 DAT, Example 3): about 78%
injury ([2]; treated control (wild-type), 5 g ai/ha, Example 1): around 50%
Injury in words ([2]; treated control (wild-type), 5 g ai/ha, Experiment 1): heavily injured
Injury in words ([2]; treated control (wild-type), 25 g ai/ha, Experiment 1): nearly completely killed
injury ([2]; treated control, 5 g ai/ha, 13 DAT, Example 4): around 42%
injury ([2]; treated control, 5 g ai/ha, 14 DAT, Example 3): around 45%
injury ([2]; treated controls, 25 g ai/ha, Example 1): around 90%
Tolerance to icafolin ([3]; CYP21, overall): good tolerance (an injury rating of less than 20% indicates good tolerance)
Percent Injury 14 DAT [3, 6]: 2.5%
Percent injury 21 DAT [3, 6]: 5.0%
Percent Injury 14 DAT [3, 7]: 50%
Percent injury 21 DAT [3, 7]: 37.5%
Percent Injury 14 DAT [3, 8]: 7.5%
Percent injury 21 DAT [3, 8]: 5.0%
Percent Injury 14 DAT [3, 9]: 72.5%
Percent injury 21 DAT [3, 9]: 62.5%
injury ([3]; CYP21 events, 5 g ai/ha): less than 10%
injury ([3]; one CYP21 event, 25 g ai/ha): about 50%
injury ([3]; the other CYP21 event, 25 g ai/ha): about 72%
